Test results taken from ChEMBL document CHEMBL2331464, “Diarylheptanoids and flavonoids from viscum album inhibit LPS-stimulated production of pro-inflammatory cytokines in bone marrow-derived dendritic cells” (J Nat Prod, 2013).
Blank lines part the entries; values can stand above or below the molecule they belong to.

How the values were obtained:
Details in all cases: bmdc
[1] = Cytotoxicity against C57BL/6 mouse BMDCs at 2 to 50 microM by MTT assay
IL-6 (mouse) = assay: Antiinflammatory activity in C57BL/6 mouse BMDCs assessed as inhibition of LPS-stimulated IL-6 production treated 1 hr before LPS challenge measured 16 hrs post stimulation by ELISA
[2] = Antiinflammatory activity in C57BL/6 mouse BMDCs assessed as inhibition of LPS-stimulated IL-12p40 production treated 1 hr before LPS challenge measured 16 hrs post stimulation by ELISA
[3] = Antiinflammatory activity in C57BL/6 mouse BMDCs assessed as inhibition of LPS-stimulated TNF-alpha production treated 1 hr before LPS challenge measured 16 hrs post stimulation by ELISA

Structure (SMILES): CC1(C)CC[C@]2(CO)CC[C@]3(C)C(=CC[C@@H]4[C@@]5(C)CC[C@H](O)C(C)(C)[C@@H]5CC[C@]43C)[C@@H]2C1 [ERYTHRODIOL]
Activity [1]: Non-toxic
IC50 (IL-6 (mouse)): > 50 µM
IC50 [2]: 13.5 µM
IC50 [3]: > 50 µM

Structure (SMILES): C[S+]([O-])c1ccc(-c2nc(-c3ccc(F)cc3)c(-c3ccncc3)[nH]2)cc1 (centres undefined) [SB-203580]
IC50 (IL-6 (mouse)): 3.45 µM
IC50 [2]: 5.21 µM
IC50 [3]: 7.53 µM

Structure (SMILES): C=C(C)[C@@H]1CC[C@]2(C(=O)O)CC[C@]3(C)[C@H](CC[C@@H]4[C@@]5(C)CC[C@H](O)C(C)(C)[C@@H]5CC[C@]43C)[C@@H]12 [BETULINIC ACID]
Activity [1]: Non-toxic
IC50 (IL-6 (mouse)): 21.3 µM
IC50 [2]: 3.61 µM
IC50 [3]: 19.4 µM

Structure (SMILES): COc1cc(O)c2c(=O)cc(-c3ccc(O[C@@H]4O[C@H](CO)[C@@H](O)[C@H](O)[C@H]4O[C@@H]4OC[C@](O)(CO)[C@H]4O)c(OC)c3)oc2c1
Activity [1]: Non-toxic
IC50 (IL-6 (mouse)): > 50 µM
IC50 [2]: > 50 µM
IC50 [3]: > 50 µM

Structure (SMILES): COc1cc(O)c2c(=O)c(O[C@H]3O[C@H](COC(=O)CC(C)(O)CC(=O)OC[C@H]4O[C@@H](Oc5c(OC)cc(/C=C/CO)cc5OC)[C@H](O)[C@@H](O)[C@@H]4O)[C@@H](O)[C@H](O)[C@H]3O)c(-c3ccc(O[C@@H]4O[C@H](CO)[C@@H](O)[C@H](O)[C@H]4O)c(OC)c3)oc2c1 (some centres undefined)
Activity [1]: Non-toxic
IC50 (IL-6 (mouse)): > 50 µM
IC50 [2]: > 50 µM
IC50 [3]: > 50 µM

Structure (SMILES): COc1cc([C@H]2OC[C@H]3[C@@H]2CO[C@@H]3c2ccc(O)c(OC)c2)ccc1O [(+)-PINORESINOL]
Activity [1]: Non-toxic

Structure (SMILES): COc1cc([C@@H]2CC(=O)c3c(O)cc(O[C@@H]4O[C@H](CO)[C@@H](O)[C@H](O)[C@H]4O[C@@H]4OC[C@](O)(CO[C@@H]5OC[C@](O)(CO)[C@H]5O)[C@H]4O)cc3O2)ccc1O [VISCUMNEOSIDE V]
Activity [1]: Non-toxic
IC50 (IL-6 (mouse)): > 50 µM
IC50 [2]: > 50 µM
IC50 [3]: > 50 µM

Structure (SMILES): COc1cc(O)c2c(=O)c(O[C@H]3O[C@H](COC(=O)CC(C)(O)CC(=O)O)[C@@H](O)[C@H](O)[C@H]3O)c(-c3ccc(O[C@@H]4O[C@H](CO)[C@@H](O)[C@H](O)[C@H]4O)c(OC)c3)oc2c1 (some centres undefined)
Activity [1]: Non-toxic
IC50 (IL-6 (mouse)): > 50 µM
IC50 [2]: > 50 µM
IC50 [3]: > 50 µM

Structure (SMILES): CO[C@H](/C=C/c1ccc(O)cc1)C[C@@H](O)CCc1ccc(O)cc1
Activity [1]: Non-toxic
IC50 (IL-6 (mouse)): > 50 µM
IC50 [2]: 11.8 µM
IC50 [3]: > 50 µM

Structure (SMILES): COc1cc([C@H]2c3c(cc(OC)c(O)c3OC)C[C@@H](CO)[C@@H]2CO[C@@H]2O[C@H](CO)[C@@H](O)[C@H](O)[C@H]2O)cc(OC)c1O
Activity [1]: Non-toxic
IC50 (IL-6 (mouse)): > 50 µM
IC50 [2]: > 50 µM
IC50 [3]: > 50 µM

Structure (SMILES): CC1(C)CC[C@]2(C(=O)O)CC[C@]3(C)C(=CC[C@@H]4[C@@]5(C)CC[C@H](O)C(C)(C)[C@@H]5CC[C@]43C)[C@@H]2C1 [OLEANOLIC_ACID]
Activity [1]: Non-toxic
IC50 (IL-6 (mouse)): > 50 µM
IC50 [2]: > 50 µM
IC50 [3]: > 50 µM

Structure (SMILES): COc1cc(O)c2c(c1)O[C@H](c1ccc(O[C@@H]3O[C@H](CO)[C@@H](O)[C@H](O)[C@H]3O[C@@H]3OC[C@](O)(CO[C@@H]4OC[C@](O)(CO)[C@H]4O)[C@H]3O)c(OC)c1)CC2=O
Activity [1]: Non-toxic
IC50 (IL-6 (mouse)): > 50 µM
IC50 [2]: > 50 µM
IC50 [3]: > 50 µM

Structure (SMILES): COc1cc(O)c2c(c1)O[C@H](c1ccc(O[C@@H]3O[C@H](CO)[C@@H](O)[C@H](O)[C@H]3O[C@@H]3OC[C@](O)(CO)[C@H]3O)c(OC)c1)CC2=O
Activity [1]: Non-toxic
IC50 (IL-6 (mouse)): > 50 µM
IC50 [2]: > 50 µM
IC50 [3]: > 50 µM

Structure (SMILES): COc1cc(/C=C/CO)cc(OC)c1O[C@@H]1O[C@H](CO)[C@@H](O)[C@H](O)[C@H]1O [SYRINGIN]
Activity [1]: Non-toxic
IC50 (IL-6 (mouse)): > 50 µM
IC50 [2]: > 50 µM
IC50 [3]: > 50 µM

Second part, led by results:

IC50 (IL-6 (mouse)): > 50 µM
IC50 [2]: > 50 µM
IC50 [3]: > 50 µM
Structure (SMILES): COc1cc(/C=C/CO)cc(OC)c1O[C@@H]1O[C@H](CO)[C@@H](O)[C@H](O)[C@H]1O[C@@H]1OC[C@](O)(CO)[C@H]1O
Activity [1]: Non-toxic

IC50 (IL-6 (mouse)): > 50 µM
IC50 [2]: > 50 µM
IC50 [3]: > 50 µM
Structure (SMILES): O=C(/C=C/c1ccc(O)cc1)C[C@@H](O)CCc1ccc(O)cc1
Activity [1]: Non-toxic

IC50 (IL-6 (mouse)): > 50 µM
IC50 [2]: > 50 µM
IC50 [3]: > 50 µM
Structure (SMILES): COc1cc([C@@H]2CC(=O)c3c(O)cc(O[C@@H]4O[C@H](CO)[C@@H](O)[C@H](O)[C@H]4O[C@@H]4OC[C@](O)(CO)[C@H]4O)cc3O2)ccc1O
Activity [1]: Non-toxic

IC50 (IL-6 (mouse)): > 50 µM
IC50 [2]: > 50 µM
IC50 [3]: > 50 µM
Structure (SMILES): CC(=O)O[C@H]1CC[C@]2(C)[C@H]3CC=C4[C@@H]5CC(C)(C)CC[C@]5(C)CC[C@@]4(C)[C@]3(C)CC[C@H]2C1(C)C [beta-AMYRIN ACETATE]
Activity [1]: Non-toxic

IC50 (IL-6 (mouse)): > 50 µM
IC50 [2]: 76.8 µM
IC50 [3]: > 50 µM
Structure (SMILES): COc1cc(-c2cc(=O)c3c(O)cc(O[C@@H]4O[C@H](CO)[C@@H](O)[C@H](O)[C@H]4O[C@@H]4OC[C@](O)(CO)[C@@H]4O)cc3o2)ccc1O
Activity [1]: Non-toxic

IC50 (IL-6 (mouse)): > 50 µM
IC50 [2]: 14.6 µM
IC50 [3]: > 50 µM
Structure (SMILES): COc1cc([C@@H]2c3c(cc(OC)c(O)c3OC)C[C@H](CO)[C@H]2CO[C@@H]2O[C@H](CO)[C@@H](O)[C@H](O)[C@H]2O)cc(OC)c1O
Activity [1]: Non-toxic

IC50 (IL-6 (mouse)): 8.96 µM
IC50 [2]: 3.86 µM
IC50 [3]: 1.01 µM
Structure (SMILES): COc1cc(O)c2c(=O)c(OC)c(-c3ccc(O[C@@H]4O[C@H](CO)[C@@H](O)[C@H](O)[C@H]4O[C@@H]4OC[C@](O)(CO)[C@H]4O)c(OC)c3)oc2c1
Activity [1]: Non-toxic

IC50 (IL-6 (mouse)): > 50 µM
IC50 [2]: 28.6 µM
IC50 [3]: > 50 µM
Structure (SMILES): COc1cc([C@@H]2OC[C@@H]3[C@H]2CO[C@H]3c2ccc(O)c(OC)c2)ccc1O [(+)-PINORESINOL]

IC50 (IL-6 (mouse)): 20.9 µM
IC50 [2]: 2 µM
IC50 [3]: 22.3 µM
Structure (SMILES): COc1cc([C@H]2OC[C@H]3[C@@H]2CO[C@@H]3c2cc(OC)c(O)c(OC)c2)ccc1O
Activity [1]: Non-toxic

IC50 (IL-6 (mouse)): 20.2 µM
IC50 [2]: 7.57 µM
IC50 [3]: 2.02 µM
Structure (SMILES): C=CC(C)(O)CC/C=C(\C)CCC=C(C)C (centres undefined) [NEROLIDOL]
Activity [1]: Non-toxic

IC50 (IL-6 (mouse)): 0.68 µM
IC50 [2]: 0.09 µM
IC50 [3]: 0.32 µM
Structure (SMILES): CO[C@@H](/C=C/c1ccc(O)cc1)C[C@@H](O)CCc1ccc(O)cc1
Activity [1]: Non-toxic

IC50 (IL-6 (mouse)): 2.02 µM
IC50 [2]: 3.62 µM
IC50 [3]: 1.22 µM
Structure (SMILES): C/C(=C\CO)CCC[C@H](C)CCC[C@H](C)CCCC(C)C [TRANS-PHYTOL]
Activity [1]: Non-toxic
